From patent publication US20200392108A1, “ANTIBODY-DRUG CONJUGATES AND RELATED COMPOUNDS, COMPOSITIONS AND METHODS” (Magenta Therapeutics, Inc., priority 2011, published 2020) come the findings set out here.

This assay concerns BT474 (HER2+) cell line. In words: Standard cellular cytotoxicity assay, BT474. The class given is cell-based, human. From the text:
The cytotoxicity of tubulysins T1 and T2 was compared to the cytotoxicity of MMAF using the BT474 (HER2+) cell line in a standard cellular cytotoxicity assay.

Read-outs that look alike come from different tables or passages of the source. Square brackets hold non-standard residues; d marks the D form. Peptide text beside a SMILES is read from it. Dolaproine = CO[C@@H]([C@@H]1CCCN1)[C@@H](C)C(=O)O; Dil = CC[C@H](C)[C@H](NC)[C@@H](CC(=O)O)OC; NMeV = CN[C@H](C(=O)O)C(C)C

With `CC[C@H](C)[C@@H]([C@@H](CC(=O)N1CCC[C@H]1[C@H](OC)[C@@H](C)C(=O)N[C@@H](Cc1ccccc1)C(=O)O)OC)N(C)C(=O)[C@@H](NC(=O)[C@@H](NC)C(C)C)C(C)C` [MMAF, monomethylauristatin F] (H-[NMeV]V[Dil][Dolaproine]F-OH), the IC50 stood at 93 nM.

Take `CC[C@H](C)[C@H](NC(=O)[C@H]1CCCCN1C)C(=O)N(C)[C@H](C[C@@H](OC(C)=O)c1nc(C(=O)O)cs1)C(C)C` [T1]: the midpoint of inhibition (Homo sapiens, BT-474), the IC50, lay at 11 nM. This lies in the double-digit nanomolar range.

For the molecule `CC[C@H](C)[C@H](NC(=O)[C@H]1CCCCN1C)C(=O)N(C)[C@H](C[C@@H](OC(C)=O)c1nc(C(=O)N[C@@H](Cc2ccccc2)C[C@H](C)C(=O)O)cs1)C(C)C` [T2], where the note is “Homo sapiens, BT-474”, the half-inhibitory concentration (IC50) is < 0.1 nM.

In general, IC50 refers to the concentration at which inhibition is half-maximal. Read a high IC50 as weaker potency.
